Target: T1, human STING (Homo sapiens, UniProt Q86WV6, G230A/H232R/R293Q/R71H)
T1 construct: THP1-Blue™ ISG cells (a human monocyte cell line transfected with an IRF-inducible secreted embryonic alkaline phosphatase reporter gene); host or cells: THP1-Blue ISG cells (human monocyte cell line)
Test: Inhibition of ML RR-CDA-mediated induction of type I IFN in THP1-Blue ISG reporter cells (QUANTI-Blue, A655)
Type: cell-based
Excerpt: To evaluate if the antagonist 2′-O-propargyl-cyclic-[A(2′,5′)pA(3′,5′)p] (ML-propargyl-CDA) can inhibit STING-dependent induction of type I interferon induction by Rp, Rp dithio cyclic [A(2′,5′)pA(3′,5′)p] (ML RR-CDA) in human cells, 4×10^5 THP1-Blue™ ISG cells (a human monocyte cell line transfected with an IRF-inducible secreted embryonic alkaline phosphatase reporter gene (Invivogen) which express alkaline phosphatase under the control of a promoter comprised of five IFN-stimulated response elements) were incubated with 50 μM of Rp, Rp dithio cyclic [A(2′,5′)pA(3′,5′)p] (ML RR-CDA), 10 μM or 50 μM of the antagonist 2′-O-propargyl-cyclic-[A(2′,5′)pA(3′,5′)p] (ML-propargyl-CDA), both 50 μM Rp, Rp dithio cyclic [A(2′,5′)pA(3′,5′)p] (ML RR-CDA) and 10 μM or 50 μM 2′-O-propargyl-cyclic-[A(2′,5′)pA(3′,5′)p] (ML-propargyl-CDA), or 50 μM Rp, Rp dithio cyclic [A(2′,5′)pA(3′,5′)p] (ML RR-CDA) after a 30 min pre-incubation with 10 μM 2′-O-propargyl-cyclic-[A(2′,5′)pA(3′,5′)p] (ML-propargyl-CDA). After 30 minutes, cells were washed and plated in 96-well dish in RPMI media containing 10% FBS, and incubated at 37° C. with 5% CO2. Cell culture supernatants from each sample were collected after 16 hr incubation, and 20 μL of the cell culture supernatants was added to 180 μL QUANTI-Blue reagent (Invivogen) and incubated for 5 minutes to evaluate type I interferon protein levels. Readings at Absorbance 655 nm were measured with a Versa Max kinetic spectrophotometer ([…]).

T1 sequence (Q86WV6 whole entry R71H/G230A/H232R/R293Q): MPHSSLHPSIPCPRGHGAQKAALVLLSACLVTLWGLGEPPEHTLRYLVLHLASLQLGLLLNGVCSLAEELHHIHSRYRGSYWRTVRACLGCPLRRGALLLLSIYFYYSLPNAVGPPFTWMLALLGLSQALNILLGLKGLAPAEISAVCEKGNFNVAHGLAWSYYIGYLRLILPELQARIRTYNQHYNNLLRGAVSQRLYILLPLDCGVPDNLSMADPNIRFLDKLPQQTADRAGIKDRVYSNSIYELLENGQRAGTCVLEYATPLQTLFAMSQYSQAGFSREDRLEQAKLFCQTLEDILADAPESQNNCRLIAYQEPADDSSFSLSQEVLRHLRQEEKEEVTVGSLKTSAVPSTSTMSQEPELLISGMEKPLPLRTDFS

Structure (SMILES): C#CCO[C@@H]1[C@@H]2OP(=O)(O)OC[C@H]3O[C@@H](n4cnc5c(N)ncnc54)[C@H](OP(=O)(O)OC[C@H]2O[C@H]1n1cnc2c(N)ncnc21)[C@@H]3O [ML-propargyl-CDA, 2′-O-propargyl-cyclic-A(2′,5′)pA(3′,5′)p]
- inhibition of induction of type I IFN by ML RR-CDA (THP1-Blue ISG cells, 10 μM or 50 μM antagonist added simultaneously with 50 μM ML RR-CDA, FIG. 7A): significantly inhibited
- inhibition of induction of type I interferon by ML RR-CDA (THP1-Blue ISG cells, 30 min pre-incubation with 10 μM antagonist, then 50 μM ML RR-CDA, FIG. 7B): inhibits
- functional character at human STING (concluded from reduction of ML RR-CDA-induced type I IFN production in THP1-Blue ISG cells): antagonist of human STING

— US10189873B2, “Compositions and methods for inhibiting “stimulator of interferon gene”-dependent signalling” (ADURO BIOTECH, INC., priority 2013, dated 2019)
